Reference: patent publication US20200024278A1, “COMPOSITION COMPRISING ANTIBIOTIC COMPOUND AND AN HETEROCYCLIC COMPOUND AND THEIR USE IN PREVENTING OR TREATING BACTERIAL INFECTIONS” (MUTABILIS, priority 2016, published 2020)
Read-outs that look alike come from different tables or passages of the source.

How the values were obtained:
Experiment in all cases: MIC, broth microdilution (CLSI), substance alone or ATB combined with compound at 4 or 8 μg/mL
ECL P99 = assay type: cell-based, E. cloacae; conditions: ECL P99; for MIC: Enterobacter cloacae
Method in brief: (§1)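 Potentiation format: antibiotic dilution series run with test compound held at 4 or 8 μg/mL, alongside compound-alone MICs. Broth microdilution per CLSI in ca-MHB, 16-20 h at 35° C.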

PAE 105250 = assay type: cell-based, P. aeruginosa; conditions: PAE 105250
Method in brief: as §1

PAE UFR48 = assay type: cell-based, P. aeruginosa; conditions: PAE UFR48
Method in brief: as §1

PAE UFR90 = assay type: cell-based, P. aeruginosa; conditions: PAE UFR90
Method in brief: as §1

SAU 29213 = assay type: cell-based, S. aureus; conditions: SAU 29213
Method in brief: as §1

SPN 49619 = assay type: cell-based, S. pneumoniae; conditions: SPN 49619
Method in brief: as §1

COCC1=C(C(=O)O)N2C(=O)[C@@H](NC(=O)/C(=N\OC)c3csc(N)n3)[C@H]2SC1 [POD, Cefpodoxime, reference compound]
<0.031 µg/mL: MIC ATB combined with Example 11 @8 μg/ml (ECL P99; with Example 11 at 8 μg/ml) | MIC ATB combined with Example 12 @8 μg/ml (ECL P99; with Example 12 at 8 μg/ml) | MIC ATB combined with Example 14 @8 μg/ml (ECL P99; with Example 14 at 8 μg/ml) | MIC ATB combined with Example 15 @4 μgml (ECL P99; with Example 15 at 4 μg/ml) | MIC ATB combined with Example 16 @4 μg/ml (ECL P99; with Example 16 at 4 μg/ml) | MIC ATB combined with Example 1 @8 μg/ml (PAE UFR48; with Example 1 at 8 μg/ml) | MIC ATB combined with Example 1 @8 μg/ml (PAE UFR90; with Example 1 at 8 μg/ml) | MIC ATB combined with Example 11 @8 μg/ml (SAU 29213; with Example 11 at 8 μg/ml) | MIC ATB combined with Example 12 @8 μg/ml (SAU 29213; with Example 12 at 8 μg/ml) | MIC ATB combined with Example 14 @8 μg/ml (SAU 29213; with Example 14 at 8 μg/ml) | MIC ATB combined with Example 15 @4 μgml (SAU 29213; with Example 15 at 4 μg/ml) | MIC ATB combined with Example 16 @4 μg/ml (SAU 29213; with Example 16 at 4 μg/ml) | MIC ATB combined with Example 9 @4 μg/ml (SPN 49619; with Example 9 at 4 μg/ml) | MIC ATB combined with Example 12 @8 μg/ml (SPN 49619; with Example 12 at 8 μg/ml) | MIC ATB combined with Example 14 @8 μg/ml (SPN 49619; with Example 14 at 8 μg/ml) | MIC ATB combined with Example 16 @4 μg/ml (SPN 49619; with Example 16 at 4 μg/ml)
0.063 µg/mL: MIC ATB combined with Example 1 @8 μg/ml (SPN 49619; with Example 1 at 8 μg/ml) | MIC ATB combined with Example 7 @8 μgml (SPN 49619; with Example 7 at 8 μg/ml) | MIC ATB combined with Example 13 @8 μg/ml (SPN 49619; with Example 13 at 8 μg/ml) | MIC (SPN 49619; Streptococcus pneumoniae, antibiotic alone, read-out: MIC ATB alone)
4 µg/mL: MIC ATB combined with Example 13 @8 μg/ml (ECL P99; with Example 13 at 8 μg/ml) | MIC ATB combined with Example 1 @8 μg/ml (SAU 29213; with Example 1 at 8 μg/ml) | MIC (SAU 29213; Staphylococcus aureus, antibiotic alone, read-out: MIC ATB alone)
2 µg/mL: MIC ATB combined with Example 7 @8 μgml (SAU 29213; with Example 7 at 8 μg/ml) | MIC ATB combined with Example 13 @8 μg/ml (SAU 29213; with Example 13 at 8 μg/ml)
<=0.031 μg/mL: MIC ATB combined with Example 9 @4 μg/ml (SAU 29213; with Example 9 at 4 μg/ml) | MIC ATB combined with Example 11 @8 μg/ml (SPN 49619; with Example 11 at 8 μg/ml) | MIC ATB combined with Example 15 @4 μgml (SPN 49619; with Example 15 at 4 μg/ml)
0.125 µg/mL: MIC ATB combined with Example 1 @8 μg/ml (PAE 105250; with Example 1 at 8 μg/ml)
> 512 µg/mL: MIC (ECL P99; antibiotic alone, read-out: MIC ATB alone) | MIC (ECL P99; substance alone, read-out: MIC) | MIC (PAE 105250; Pseudomonas aeruginosa, antibiotic alone, read-out: MIC ATB alone)
>32 µg/mL: MIC ATB combined with Example 7 @8 μgml (PAE 105250; with Example 7 at 8 μg/ml) | MIC ATB combined with Example 9 @4 μg/ml (PAE 105250; with Example 9 at 4 μg/ml) | MIC ATB combined with Example 11 @8 μg/ml (PAE 105250; with Example 11 at 8 μg/ml) | MIC ATB combined with Example 12 @8 μg/ml (PAE 105250; with Example 12 at 8 μg/ml) | MIC ATB combined with Example 13 @8 μg/ml (PAE 105250; with Example 13 at 8 μg/ml) | MIC ATB combined with Example 14 @8 μg/ml (PAE 105250; with Example 14 at 8 μg/ml) | MIC ATB combined with Example 15 @4 μgml (PAE 105250; with Example 15 at 4 μg/ml) | MIC ATB combined with Example 16 @4 μg/ml (PAE 105250; with Example 16 at 4 μg/ml) | MIC ATB combined with Example 7 @8 μgml (PAE UFR48; with Example 7 at 8 μg/ml) | MIC ATB combined with Example 9 @4 μg/ml (PAE UFR48; with Example 9 at 4 μg/ml) | MIC ATB combined with Example 11 @8 μg/ml (PAE UFR48; with Example 11 at 8 μg/ml) | MIC ATB combined with Example 12 @8 μg/ml (PAE UFR48; with Example 12 at 8 μg/ml) | MIC ATB combined with Example 13 @8 μg/ml (PAE UFR48; with Example 13 at 8 μg/ml) | MIC ATB combined with Example 14 @8 μg/ml (PAE UFR48; with Example 14 at 8 μg/ml) | MIC ATB combined with Example 15 @4 μgml (PAE UFR48; with Example 15 at 4 μg/ml) | MIC ATB combined with Example 16 @4 μg/ml (PAE UFR48; with Example 16 at 4 μg/ml) | MIC ATB combined with Example 7 @8 μgml (PAE UFR90; with Example 7 at 8 μg/ml) | MIC ATB combined with Example 9 @4 μg/ml (PAE UFR90; with Example 9 at 4 μg/ml) | MIC ATB combined with Example 11 @8 μg/ml (PAE UFR90; with Example 11 at 8 μg/ml) | MIC ATB combined with Example 12 @8 μg/ml (PAE UFR90; with Example 12 at 8 μg/ml) | MIC ATB combined with Example 13 @8 μg/ml (PAE UFR90; with Example 13 at 8 μg/ml) | MIC ATB combined with Example 14 @8 μg/ml (PAE UFR90; with Example 14 at 8 μg/ml) | MIC ATB combined with Example 15 @4 μgml (PAE UFR90; with Example 15 at 4 μg/ml) | MIC ATB combined with Example 16 @4 μg/ml (PAE UFR90; with Example 16 at 4 μg/ml)
